Experiments:
psoriasis [1] = details: cited from earlier work
refractory psoriasis [2] = experiment: Clinical study of efficacy of dexrazoxane in patients with refractory psoriasis, Psoriasis Area and Severity Index (Example 4); type: in vivo, human
Procedure: (§1) The efficacy and tolerability of dexrazoxane in patients with refractory psoriasis was assessed in a clinical study.
(§2) After screening, eligible patients received 500 mg of Cardioxane® by intravenous infusion on each of two consecutive days. They were reviewed 7 and 14 days after the first day of treatment. The patients received the second cycle of treatment, which consisted of either 500 mg Cardioxane® by intravenous infusion, on each of two consecutive days (days 15 and 16, in this case), if a complete response had occurred, or 1000 mg Cardioxane® by intravenous infusion, on each of two consecutive days (days 15 and 16, in this case), if an incomplete response had occurred.
(§3) A third cycle of treatment was given after the same interval (days 29 and 30, in this case).
The primary efficacy parameter was the percentage reduction in skin area and severity affected by psoriasis, as determined by the standardised assessment of the Psoriasis Area and Severity Index (PASI).
Seven patients have been enrolled in the study and all patients have completed a follow-up period of two weeks. At the beginning of the treatment, the PASI-scores ranged between 23.1 and 44.1, with a mean score of 31.9. […] At the end of the third treatment cycle, the PASI-scores ranged between 3.4 and 29.7, with a mean score of 11.4.

psoriasis [3] = experiment: Clinical trial case reports: Cardioxane intravenous drip infusion in individual psoriasis patients (Examples 1-3); type: in vivo, human
Text: The disease started after mental stress (loss of near person) with a rash on the hairy part of the head. From the very onset of the disease the patient received intensive treatment with vitamins B12, B6, B2, and calcium. They had artificial hyperthermia with pyrogenal injections, methotrexate, various ointments (e.g. salicylic ointment) under a dermatologist's observation at a specialised clinic. In spite of the treatment the psoriatic rash was spreading over the trunk, upper and lower extremities and it was accompanied by a marked general itch. The patient had practically no remissions. Concurrent diseases were grade II hypertension and chronic cholecystopancreatitis.
At the first examination the patient complained about itching all over the body (resulting in insomnia) and pain in the large joints (mainly knees). The skin on the back, buttocks, chest and arms was covered with a erythematous papular and pustular rash with a white coating (desquamation). A similar though less intense rash was seen on the legs. The patient's general status, the haematological and biochemical profiles were within normal.
On the first and the second day of the treatment cycle the patient received the first doses of Cardioxane® (dexrazoxane.HCl) at 500 mg each day by intravenous drip infusion. […] The itch practically disappeared after the next dose of Cardioxane® therapy at 1000 mg on day 16. […] The patient slept well for the first time in a long disease period. The effect was still preserved at the examination on day 29 and day 30 when the patient was given the last two injections of Cardioxane® at 1500 mg each.
This patient had suffered from generalised psoriasis for 25 years. The rash first appeared on the head and the right upper limb to spread over the trunk and upper limbs later. The patient had received therapies similar to the patient described in Example 1. In addition they received UV therapy, peloids, sulfurated hydrogen baths, but without lasting effect. The patient had no concurrent illness except asthenia, sinus arrhythmia and left ventricular hypertrophy. The skin on the back, lumbar region and shoulders was covered with merged erythematous papular, bullar and desquamating lesions. The rash on the lateral chest walls and on the lower limbs was mainly erythematous and less marked. The skin lesions covered about 50% of the body surface.
The patient was given 6 intravenous drip injections with Cardioxane® according to the following schedule:
On day 1 and day 2 each 500 mg Cardioxane®,
on day 15 and day 16 each 1000 mg Cardioxane®,
and on day 29 and day 30 each 1500 mg Cardioxane®.
The psoriatic rash appeared on the hairy part of the head and neck to spread further over the body. The patient received insolation with but a temporary effect. The patient had had 4 hospitalisations to receive therapy with vitamins, calcium, and various ointments.
At the first examination on day 1 the patient presented with continuous erythematous papular psoriatic rash with desquamation on the front abdominal wall (below the submammal fold), the inguioileac, the lumbosacral, the gluteal regions and the lower limbs, severe itch, and scraping tubular breathing (asthmatic bronchitis). Of note was also a marked increase in the eosinophile count.
The patient received 6 intravenous drip injections of Cardioxane® according to the protocol given in Example 2. […] The lower half of the abdomen as well as the upper gluteal quadrants were practically free of rash.

[4] = pH of reconstituted and diluted Cardioxane solution for infusion; type: physicochemical
Procedure: Cardioxane® is available in 36 ml brown glass vials. Each vial contains 500 mg lyophilised active substance, the hydrochloric acid salt of dexrazoxane. For reconstitution the contents of each vial is dissolved in 25 ml sterile water for injection. The contents will dissolve within a few minutes under gentle agitation. The pH of the resulting solution is approx. pH 1.6.
For infusion the solution needs to be further diluted. Preferred are sodium lactate UP (0.16M) or Ringer-Lactate BP for infusion. Both solutions give an infusion fluid with an acceptable pH.

[5] = human, in vivo
Procedure: as §1, §2, §3
This neutropenia disappeared after another week, and the counts were normal from then on. All other patients had normal white blood cell counts. The assessment of toxicity was according to the WHO criteria: grade 0 (non-toxic, a count of more than 4×10E9 leukocytes per liter), grade 1 (mild) to grade 4 (most severe).

refractory psoriasis [6] = experiment: Separate longer study of three patients with refractory psoriasis; type: in vivo, human
Text: This patient, who previously suffered distressing refractory psoriasis, can be treated with conventional emollients. Dexrazoxane therefore has the potential to provide remarkable long term relief from refractory psoriasis and a low level of side effects.

[7] = British Journal of Dermatology (1980) 102, 307
[8] = at 11 weeks after the start of the therapy
[9] = Example 3 patient, examination on day 30
[10] = patients of the clinical trial (general statement)

Structure (SMILES): CC(CN1CC(=O)NC(=O)C1)N1CC(=O)NC(=O)C1 (racemic) [razoxane, 1,2-bis(3,5-dioxopiperazin-1-yl)-propane]
- efficacy in psoriasis (psoriasis [1]; [7]): relatively good efficacy
- tolerability in psoriasis patients (psoriasis [1]; [7]): good tolerability
- most frequently seen side effect (psoriasis [1]; Horton and Wells, British Journal of Dermatology (1983) 109, 669-673): neutropenia

Structure (SMILES): CC(CN1CC(=O)NC(=O)C1)N1CC(=O)NC(=O)C1 (stereo not drawn) [Cardioxane]
- maximum reduction in PASI (refractory psoriasis [2]; [8]): 88%
- mean reduction in PASI (refractory psoriasis [2]; [8]): 65%
- relief of symptoms associated with psoriatic arthritis (refractory psoriasis [2]; compared to treatment with cyclosporine A used previously in the clinic): better and faster relief
- remission (refractory psoriasis [2]; one month after the last injection): most of the patients are still in remission
- PASI score (refractory psoriasis [2]; patient 1/HH, visit v1 (start of treatment)): 23.1
- PASI score (refractory psoriasis [2]; patient 1/HH, visit v4): 11.3
- PASI score (refractory psoriasis [2]; patient 1/HH, visit v7): 7.7
- PASI score (refractory psoriasis [2]; patient 1/HH, visit v9): 6.5
- PASI score (refractory psoriasis [2]; patient 1/HH, visit v10): 6.5
- PASI score (refractory psoriasis [2]; patient 1/HH, visit v11): 5.6
- PASI score (refractory psoriasis [2]; patient 2/MR, visit v1 (start of treatment)): 43.6
- PASI score (refractory psoriasis [2]; patient 2/MR, visit v4): 36.3
- PASI score (refractory psoriasis [2]; patient 2/MR, visit v7): 23.1
- PASI score (refractory psoriasis [2]; patient 2/MR, visit v9): 15.6
- PASI score (refractory psoriasis [2]; patient 2/MR, visit v10): 12.3
- PASI score (refractory psoriasis [2]; patient 2/MR, visit v11): 14.0
- PASI score (refractory psoriasis [2]; patient 3/MZ, visit v1 (start of treatment)): 29.8
- PASI score (refractory psoriasis [2]; patient 3/MZ, visit v4): 18.4
- PASI score (refractory psoriasis [2]; patient 3/MZ, visit v7): 11.6
- PASI score (refractory psoriasis [2]; patient 3/MZ, visit v9): 9.7
- PASI score (refractory psoriasis [2]; patient 3/MZ, visit v10): 7.1
- PASI score (refractory psoriasis [2]; patient 3/MZ, visit v11): 6.5
- PASI score (refractory psoriasis [2]; patient 4/PH, visit v1 (start of treatment)): 27.0
- PASI score (refractory psoriasis [2]; patient 4/PH, visit v4): 18.6
- PASI score (refractory psoriasis [2]; patient 4/PH, visit v7): 13.5
- PASI score (refractory psoriasis [2]; patient 4/PH, visit v9): 10.8
- PASI score (refractory psoriasis [2]; patient 4/PH, visit v10): 12.0
- PASI score (refractory psoriasis [2]; patient 4/PH, visit v11): 5.2
- PASI score (refractory psoriasis [2]; patient 5/PZ, visit v1 (start of treatment)): 29.1
- PASI score (refractory psoriasis [2]; patient 5/PZ, visit v4): 16.9
- PASI score (refractory psoriasis [2]; patient 5/PZ, visit v7): 9.9
- PASI score (refractory psoriasis [2]; patient 5/PZ, visit v9): 9.3
- PASI score (refractory psoriasis [2]; patient 5/PZ, visit v10): 7.8
- PASI score (refractory psoriasis [2]; patient 5/PZ, visit v11): 3.4
- PASI score (refractory psoriasis [2]; patient 6/FJ, visit v1 (start of treatment)): 44.1
- PASI score (refractory psoriasis [2]; patient 6/FJ, visit v4): 24.8
- PASI score (refractory psoriasis [2]; patient 6/FJ, visit v7): 20.3
- PASI score (refractory psoriasis [2]; patient 6/FJ, visit v9): 15.6
- PASI score (refractory psoriasis [2]; patient 6/FJ, visit v10): 15.6
- PASI score (refractory psoriasis [2]; patient 6/FJ, visit v11): 15.3
- PASI score (refractory psoriasis [2]; patient 7/DJ, visit v1 (start of treatment)): 26.6
- PASI score (refractory psoriasis [2]; patient 7/DJ, visit v4): 23.6
- PASI score (refractory psoriasis [2]; patient 7/DJ, visit v7): 23.0
- PASI score (refractory psoriasis [2]; patient 7/DJ, visit v9): 21.8
- PASI score (refractory psoriasis [2]; patient 7/DJ, visit v10): 28.5
- PASI score (refractory psoriasis [2]; patient 7/DJ, visit v11): 29.7
- mean PASI score at the end of the third treatment cycle (refractory psoriasis [2]; seven patients, end of third treatment cycle): 11.4
- response to the treatment (refractory psoriasis [2]; seven patients, one patient absolutely resistant): Most of the patients did respond to the treatment
- arthralgia (psoriasis [3]; Example 1 patient, after 1000 mg dose on day 16): complete disappearance of anthralgia
- adverse events (psoriasis [3]; Example 1 patient, after any of the injections (500, 1000, 1500 mg)): no adverse events
- itch (psoriasis [3]; Example 1 patient, 500 mg i.v. on days 1 and 2): amelioration of itch several hours after the first
- side effects (psoriasis [3]; Example 2 patient, 6 i.v. drip injections 500-1500 mg): no side effects
- erythema (psoriasis [3]; Example 2 patient, examination on day 15 and day 29): mild amelioration of erythema on the back
- skin itch (psoriasis [3]; Example 3 patient, at 2 or 3 days after the first injection): complete disappearance of skin itch
- adverse events (psoriasis [3]; Example 3 patient, examination on day 15): no adverse events
- adverse events (psoriasis [3]; [9]): No adverse events were reported
- complete regression of the rash (psoriasis [3]; [9]): about 80%
- pH of the resulting solution ([4]; 500 mg vial dissolved in 25 ml sterile water for injection): ~1.6
- pH ([4]; 4 reconstituted vials diluted with 100 ml Ringer-Lactate BP, total 200 ml): 2.14
- pH ([4]; 4 reconstituted vials diluted with 100 ml Sodium lactate UP (0.16 M), total 200 ml): 3.80
- pH ([4]; 4 reconstituted vials diluted with 300 ml Ringer-Lactate BP, total 400 ml): 2.85
- pH ([4]; 4 reconstituted vials diluted with 300 ml Sodium lactate UP (0.16 M), total 400 ml): 4.47
- pH ([4]; 4 reconstituted vials diluted with 400 ml Ringer-Lactate BP, total 500 ml): 3.19
- pH ([4]; 4 reconstituted vials diluted with 500 ml Ringer-Lactate BP, total 600 ml): 3.45
- pH ([4]; 4 reconstituted vials diluted with 500 ml Sodium lactate UP (0.16 M), total 600 ml): 4.66
- leukocyte count in the patient with leukopenia [5]: approximately 3×10E9 cells per liter
- leukopenia incidence [5]: only one was diagnosed with mild, reversible leukopenia
- serious adverse events [5]: no serious adverse events were reported
- toxicity grade according to World Health Organisation criteria [5]: grade I
- vomiting, nausea, or diarrhoea [5]: No cases of vomiting, nausea, or diarrhoea were recorded

Structure (SMILES): CC(CN1CC(=O)NC(=O)C1)N1CC(=O)NC(=O)C1 (stereo not drawn) [dexrazoxane, d-isomer of 1,2-bis(3,5-dioxopiperazin-1-yl)-propane]
- itch (psoriasis [3]; [10]): diminished several hours after the first administration
- regression of the skin lesions (psoriasis [3]; [10]): 25-30%
- duration of relief from refractory psoriasis (refractory psoriasis [6]; some patients (summary statement)): up to at least one year
- long term freedom from lesions and symptoms (refractory psoriasis [6]; three patients with refractory psoriasis, after one year): one patient is still relatively free of lesions and symptoms after one year
- serious side effects [5]: No serious side effects have been reported

Source: patent US6693100B1, “Pharmaceutical compositions for treating psoriasis” (priority 1999, dated 2004)
